Where two headings read alike, the source gives them in different places.
Key:
EGFR (C797S L858R) = molecular target: T1, EGFR (C797S L858R) (Homo sapiens, UniProt P00533, C797S/L858R); experiment: Inhibition of EGFR (C797S L858R) biochemical enzymatic activity (HTRF); conditions: EGFR L858-C797S, 1 mM ATP, 1 h, room temperature, read-out: IC50 (nM) @L858-C797S
T1 construct: purchased signalchem
In short: (§1)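 Time-resolved FRET assay of EGFR substrate phosphorylation. Conditions: 1 μM TK substrate-biotin, 1 mM ATP, Mg/Mn buffer, 1 h at RT. IC50 from 4-parameter curve fit.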

EGFR Exon19Del/T790M = molecular target: T2, EGFR Exon19Del/T790M (Homo sapiens, UniProt P00533, DEL746-750/T790M); experiment: Inhibition of EGFR Exon19Del/T790M biochemical enzymatic activity (HTRF); conditions: EGFR Del19-T790M, 1 mM ATP, 1 h, room temperature, read-out: IC50 (nM) @Del19-T790M
T2 construct: purchased Carna Bio
T2 sequence (P00533 with tags, fused parts or gaps DEL746-750/T790M limits assumed): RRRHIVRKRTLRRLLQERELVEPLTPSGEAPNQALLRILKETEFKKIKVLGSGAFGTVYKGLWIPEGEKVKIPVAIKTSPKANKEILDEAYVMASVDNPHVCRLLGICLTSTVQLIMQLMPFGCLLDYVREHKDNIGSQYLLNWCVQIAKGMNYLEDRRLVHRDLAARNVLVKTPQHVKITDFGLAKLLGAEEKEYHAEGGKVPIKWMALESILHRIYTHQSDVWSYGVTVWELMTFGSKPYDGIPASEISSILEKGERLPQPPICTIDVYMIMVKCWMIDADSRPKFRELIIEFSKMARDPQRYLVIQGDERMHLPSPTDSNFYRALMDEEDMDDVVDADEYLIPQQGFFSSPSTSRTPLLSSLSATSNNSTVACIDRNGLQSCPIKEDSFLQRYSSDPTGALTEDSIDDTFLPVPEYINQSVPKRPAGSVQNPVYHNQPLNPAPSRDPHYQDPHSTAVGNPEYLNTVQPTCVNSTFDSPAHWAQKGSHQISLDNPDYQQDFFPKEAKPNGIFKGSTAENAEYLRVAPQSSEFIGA
In short: as §1

EGFR L858R/T790M = molecular target: T3, EGFR L858R/T790M (Homo sapiens, UniProt P00533, L858R/T790M); experiment: Inhibition of EGFR L858R/T790M biochemical enzymatic activity (HTRF); conditions: EGFR L858R-T790M, 1 mM ATP, 1 h, room temperature, read-out: IC50 (nM) @L858R-T790M
T3 construct: purchased Carna Bio
In short: as §1

PC-9 = experiment: Cell proliferation assay, PC-9 cells (CellTiter-Glo, 72 hours); type: cell-based; conditions: PC9 cells, CellTiter-Glo, read-out: PC9 GI50
In short: (§2)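 Luminescent viable-cell counts were taken on a day 0 plate at dosing and again at endpoint. Proliferation was calculated as (sample − G0)/(DMSO − G0). Seeding was 5000 Ba/F3 or 500 PC-9 cells per well in RPMI1640, followed by overnight attachment and serial compound dilutions. The GI50 was fitted.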

[1] = system: Ba/F3 cells expressing EGFR mutations; experiment: Cell proliferation assay, Ba/F3 cells expressing EGFR mutations (CellTiter-Glo, 72 hours); type: cell-based; conditions: CellTiter-Glo
In short: as §2

EGFR L858R = molecular target: T4, EGFR L858R (Homo sapiens, UniProt P00533, L858R); experiment: Inhibition of EGFR L858R biochemical enzymatic activity (HTRF); conditions: 1 mM ATP, 1 h, room temperature, read-out: IC50 (nM) @L858R
T4 construct: purchased Carna Bio
In short: as §1

EGFR wild type = molecular target: T5, EGFR wild type (Homo sapiens, UniProt P00533); experiment: Inhibition of EGFR wild type biochemical enzymatic activity (HTRF); conditions: EGFR WT, 1 mM ATP, 1 h, room temperature, read-out: IC50 (nM) @WT
T5 construct: purchased Carna Bio
In short: as §1

[2] = molecular target: T6, EGFR[T790M/C797S/d746-750] (Homo sapiens, UniProt P00533, C797S/DEL746-750/T790M); experiment: Inhibition of EGFR[T790M/C797S/d746-750] biochemical enzymatic activity (HTRF); conditions: EGFR T790M-C797S-Del19, 1 mM ATP, 1 h, room temperature, read-out: IC50 (nM) @T790M - C797S - Del19
T6 construct: purchased Carna Bio
T6 sequence (P00533 with tags, fused parts or gaps DEL746-750/T790M/C797S limits assumed): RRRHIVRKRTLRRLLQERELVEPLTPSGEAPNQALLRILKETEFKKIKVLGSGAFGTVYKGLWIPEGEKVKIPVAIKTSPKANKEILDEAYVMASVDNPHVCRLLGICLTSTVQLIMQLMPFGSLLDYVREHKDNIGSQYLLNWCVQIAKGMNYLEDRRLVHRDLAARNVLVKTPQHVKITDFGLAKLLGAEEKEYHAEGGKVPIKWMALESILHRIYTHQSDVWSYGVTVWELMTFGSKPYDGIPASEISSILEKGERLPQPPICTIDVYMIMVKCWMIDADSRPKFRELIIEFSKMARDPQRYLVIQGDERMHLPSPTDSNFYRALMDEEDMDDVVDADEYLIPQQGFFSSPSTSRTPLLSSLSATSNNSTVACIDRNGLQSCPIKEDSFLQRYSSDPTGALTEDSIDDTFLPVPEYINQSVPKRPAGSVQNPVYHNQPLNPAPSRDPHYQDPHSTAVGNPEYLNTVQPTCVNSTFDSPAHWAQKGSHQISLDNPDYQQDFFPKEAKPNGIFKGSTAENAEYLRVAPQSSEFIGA
In short: as §1

EGFR[T790M/C797S/L858R] = molecular target: T7, EGFR[T790M/C797S/L858R] (Homo sapiens, UniProt P00533, C797S/L858R/T790M); experiment: Inhibition of EGFR[T790M/C797S/L858R] biochemical enzymatic activity (HTRF); conditions: EGFR T790M-C797S-L858R, 1 mM ATP, 1 h, room temperature, read-out: IC50 (nM) @T790M- C797S - L858R
T7 construct: purchased Carna Bio
T7 sequence (P00533 25-1210 T790M/C797S/L858R): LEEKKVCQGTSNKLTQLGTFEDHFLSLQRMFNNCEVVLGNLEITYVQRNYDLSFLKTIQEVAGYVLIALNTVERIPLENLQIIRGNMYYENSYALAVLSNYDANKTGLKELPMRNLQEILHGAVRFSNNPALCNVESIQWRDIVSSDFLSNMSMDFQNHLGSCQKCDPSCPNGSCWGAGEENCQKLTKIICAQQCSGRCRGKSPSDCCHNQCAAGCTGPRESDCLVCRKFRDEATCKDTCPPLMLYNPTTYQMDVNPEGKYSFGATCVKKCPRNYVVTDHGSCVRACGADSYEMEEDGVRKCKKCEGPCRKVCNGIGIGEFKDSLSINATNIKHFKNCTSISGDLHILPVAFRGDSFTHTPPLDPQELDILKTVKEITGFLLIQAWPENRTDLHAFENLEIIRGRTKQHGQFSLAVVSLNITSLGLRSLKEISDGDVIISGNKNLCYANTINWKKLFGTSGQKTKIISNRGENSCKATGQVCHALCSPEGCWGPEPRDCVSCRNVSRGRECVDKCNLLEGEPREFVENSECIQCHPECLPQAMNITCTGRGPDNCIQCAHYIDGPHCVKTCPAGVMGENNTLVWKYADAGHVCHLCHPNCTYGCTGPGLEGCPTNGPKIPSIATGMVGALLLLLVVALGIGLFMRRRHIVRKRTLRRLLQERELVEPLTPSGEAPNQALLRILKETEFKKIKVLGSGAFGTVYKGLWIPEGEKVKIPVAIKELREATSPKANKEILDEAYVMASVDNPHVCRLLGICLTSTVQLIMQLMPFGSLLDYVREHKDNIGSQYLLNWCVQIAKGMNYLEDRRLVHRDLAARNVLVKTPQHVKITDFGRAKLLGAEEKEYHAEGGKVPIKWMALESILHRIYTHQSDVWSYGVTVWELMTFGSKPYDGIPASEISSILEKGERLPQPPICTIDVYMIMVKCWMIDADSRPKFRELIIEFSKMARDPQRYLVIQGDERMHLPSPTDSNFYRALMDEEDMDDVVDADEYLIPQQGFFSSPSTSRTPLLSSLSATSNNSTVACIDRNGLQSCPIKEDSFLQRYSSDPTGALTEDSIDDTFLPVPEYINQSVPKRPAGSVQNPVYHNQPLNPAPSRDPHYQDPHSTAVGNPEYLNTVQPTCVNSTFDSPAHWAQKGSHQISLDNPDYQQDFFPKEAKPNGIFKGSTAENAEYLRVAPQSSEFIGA
In short: as §1

A-431 = experiment: Cell proliferation GI50, A-431 cells (Table 6); type: cell-based
EGFR (d746-750 C797S) = molecular target: T8, EGFR (d746-750 C797S) (Homo sapiens, UniProt P00533, C797S/DEL746-750); experiment: Inhibition of EGFR (d746-750 C797S) biochemical enzymatic activity (HTRF); conditions: EGFR Del19-C797S, 1 mM ATP, 1 h, room temperature, read-out: IC50 (nM) @Del19-C797S
T8 construct: purchased signalchem
T8 sequence (P00533 with tags, fused parts or gaps DEL746-750/C797S limits assumed): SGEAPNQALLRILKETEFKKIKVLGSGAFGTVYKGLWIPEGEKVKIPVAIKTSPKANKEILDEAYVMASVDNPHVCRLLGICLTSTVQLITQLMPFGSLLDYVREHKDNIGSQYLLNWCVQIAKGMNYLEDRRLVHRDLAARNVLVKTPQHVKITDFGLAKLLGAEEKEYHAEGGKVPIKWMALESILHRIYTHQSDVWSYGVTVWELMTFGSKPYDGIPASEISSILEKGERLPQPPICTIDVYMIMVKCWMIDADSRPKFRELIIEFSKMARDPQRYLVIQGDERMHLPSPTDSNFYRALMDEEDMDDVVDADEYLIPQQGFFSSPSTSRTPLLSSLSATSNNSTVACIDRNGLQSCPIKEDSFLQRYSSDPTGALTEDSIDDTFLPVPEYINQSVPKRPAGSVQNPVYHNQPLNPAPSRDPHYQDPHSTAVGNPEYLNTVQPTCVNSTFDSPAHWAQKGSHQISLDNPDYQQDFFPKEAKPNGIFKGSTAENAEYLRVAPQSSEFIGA
In short: as §1

EGFR Exon19Del = molecular target: T9, EGFR Exon19Del (Homo sapiens, UniProt P00533, DEL746-750); experiment: Inhibition of EGFR Exon19Del biochemical enzymatic activity (HTRF); conditions: EGFR Del19, 1 mM ATP, 1 h, room temperature, read-out: IC50 @Del19
T9 construct: purchased Carna Bio
T9 sequence (P00533 with tags, fused parts or gaps DEL746-750 limits assumed): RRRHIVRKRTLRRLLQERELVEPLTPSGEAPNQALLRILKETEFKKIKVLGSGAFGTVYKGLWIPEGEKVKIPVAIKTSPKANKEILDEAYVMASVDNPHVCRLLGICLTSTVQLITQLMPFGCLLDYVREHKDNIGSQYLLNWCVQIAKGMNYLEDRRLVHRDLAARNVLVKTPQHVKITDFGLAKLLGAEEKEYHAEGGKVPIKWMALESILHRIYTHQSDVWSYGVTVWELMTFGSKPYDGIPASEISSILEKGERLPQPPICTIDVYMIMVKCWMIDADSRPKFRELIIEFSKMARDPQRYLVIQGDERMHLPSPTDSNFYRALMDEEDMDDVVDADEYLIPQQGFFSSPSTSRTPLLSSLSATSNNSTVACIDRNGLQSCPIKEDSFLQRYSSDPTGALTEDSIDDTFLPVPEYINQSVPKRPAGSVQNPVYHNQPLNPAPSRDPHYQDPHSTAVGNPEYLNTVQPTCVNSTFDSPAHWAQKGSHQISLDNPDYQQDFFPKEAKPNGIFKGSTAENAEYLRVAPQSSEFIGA
In short: as §1

[3] = Mus musculus, BaF3, 72 h, BaF3 cells, EGFR DEL19-C797S, read-out: DEL19-C797S/BaF3 GI50
[4] = Mus musculus, BaF3, 72 h, BaF3 cells, EGFR DEL19-T790-C797S, read-out: DEL19-T790-C797S/BaF3 GI50
[5] = Mus musculus, BaF3, 72 h, BaF3 cells, EGFR L858R, read-out: L858R/BaF3 GI50
[6] = Mus musculus, BaF3, 72 h, BaF3 cells, EGFR L858R-C797S, read-out: L858R-C797S/BaF3 GI50
[7] = Mus musculus, BaF3, 72 h, BaF3 cells, EGFR L858R-T790-C797S, read-out: L858R-T790-C797S/BaF3 GI50
[8] = Mus musculus, BaF3, 72 h, BaF3 cells, EGFR L858R-T790M, read-out: L858R-T790M/BaF3 GI50
[9] = Mus musculus, BaF3, 72 h, EGFR DEL19-T790M, read-out: DEL19-T790M GI50
[10] = Homo sapiens, A-431, A-431 cells
[11] = BaF3 cells, EGFR DEL19-C797S, read-out: DEL19-C797S/BaF3 GI50
[12] = BaF3 cells, EGFR DEL19-T790-C797S, read-out: DEL19-T790-C797S/BaF3 GI50
[13] = BaF3 cells, EGFR L858R, read-out: L858R/BaF3 GI50
[14] = BaF3 cells, EGFR L858R-C797S, read-out: L858R-C797S/BaF3 GI50
[15] = BaF3 cells, EGFR L858R-T790-C797S, read-out: L858R-T790-C797S/BaF3 GI50
[16] = BaF3 cells, EGFR L858R-T790M, read-out: L858R-T790M/BaF3 GI50
[17] = EGFR DEL19-T790M, read-out: DEL19-T790M GI50

T1 sequence (P00533 25-1210 C797S/L858R): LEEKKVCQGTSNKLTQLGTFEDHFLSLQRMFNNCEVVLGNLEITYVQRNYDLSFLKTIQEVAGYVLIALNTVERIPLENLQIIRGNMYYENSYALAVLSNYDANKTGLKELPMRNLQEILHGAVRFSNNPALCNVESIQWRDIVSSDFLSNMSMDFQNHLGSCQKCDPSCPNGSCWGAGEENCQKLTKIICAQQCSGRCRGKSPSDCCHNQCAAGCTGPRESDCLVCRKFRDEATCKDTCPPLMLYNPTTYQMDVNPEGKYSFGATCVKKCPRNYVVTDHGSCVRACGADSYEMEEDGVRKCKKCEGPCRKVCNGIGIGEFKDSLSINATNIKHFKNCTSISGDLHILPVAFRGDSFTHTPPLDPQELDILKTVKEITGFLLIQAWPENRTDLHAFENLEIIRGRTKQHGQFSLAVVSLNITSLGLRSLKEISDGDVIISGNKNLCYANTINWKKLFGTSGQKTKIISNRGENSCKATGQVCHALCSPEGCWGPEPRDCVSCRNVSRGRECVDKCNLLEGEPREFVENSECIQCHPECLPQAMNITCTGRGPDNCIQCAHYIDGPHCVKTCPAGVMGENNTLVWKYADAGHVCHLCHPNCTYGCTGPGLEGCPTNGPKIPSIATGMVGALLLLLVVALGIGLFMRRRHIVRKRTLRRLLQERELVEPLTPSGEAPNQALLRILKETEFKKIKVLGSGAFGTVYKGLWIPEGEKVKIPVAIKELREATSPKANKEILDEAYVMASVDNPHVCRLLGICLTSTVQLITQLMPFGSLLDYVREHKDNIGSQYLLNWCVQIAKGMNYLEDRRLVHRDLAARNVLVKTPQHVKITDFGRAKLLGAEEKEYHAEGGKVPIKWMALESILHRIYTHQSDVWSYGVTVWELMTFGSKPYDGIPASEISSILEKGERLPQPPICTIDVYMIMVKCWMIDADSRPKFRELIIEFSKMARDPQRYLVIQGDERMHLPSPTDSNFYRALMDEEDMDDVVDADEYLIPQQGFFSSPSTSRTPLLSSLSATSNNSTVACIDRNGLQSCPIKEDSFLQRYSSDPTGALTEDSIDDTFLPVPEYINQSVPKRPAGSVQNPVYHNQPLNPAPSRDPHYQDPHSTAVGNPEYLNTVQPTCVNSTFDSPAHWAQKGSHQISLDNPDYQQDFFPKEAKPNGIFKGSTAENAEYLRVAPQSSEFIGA

SMILES	IC50 (EGFR (C797S L858R)) [nM]	IC50 (EGFR Exon19Del/T790M) [nM]	IC50 (EGFR L858R/T790M) [nM]	GI50 (PC-9; Homo sapiens, PC-9, 72 h) [nM]	IC50 (EGFR L858R) [nM]	IC50 (EGFR wild type) [nM]	IC50 [2] [nM]	IC50 (EGFR[T790M/C797S/L858R]) [nM]	GI50 (A-431; [10]) [nM]	IC50 (EGFR (d746-750 C797S)) [nM]	IC50 (EGFR Exon19Del) [nM]	GI50 (PC-9) [nM]	GI50 [1, 11] [nM]	GI50 [1, 12] [nM]	GI50 [1, 13] [nM]	GI50 [1, 14] [nM]	GI50 [1, 15] [nM]	GI50 [1, 16] [nM]	GI50 [1, 17] [nM]	GI50 (A-431; A-431 cells) [nM]	further results
CN1CCN(c2ccc3nc4n(c3c2)CCN(CC(F)(F)F)CCOc2c(cnn2C)-c2cc(cn(C)c2=O)C(=O)N4)CC1 [Example A3, 5,26-Dimethyl-16-(4-methylpiperazin-1-yl)-10-(2,2,2-trifluoroethyl)-7-oxa-4,5,10,13,20,22,26-heptaazapentacyclo[22.3.1.0^{2,6}.0^{13,21}.0^{14,19}]octacosa-1(28),2(6),3,14,16,18,20,24-octaene-23,27-dione]	10	9.3	12	236	13	104	8.9	8.5	1290	6.7	12	–	–	–	–	–	–	–	–	–	GI50 [1, 3]: 16 nM; GI50 [1, 4]: 124 nM; GI50 [1, 5]: 9.7 nM; GI50 [1, 6]: 11 nM; GI50 [1, 7]: 22 nM; GI50 [1, 8]: 30 nM; GI50 [1, 9]: 128 nM
Cn1ncc2c1OCCN1CC3CCC(C3)(C1)n1c(nc3ccc(N4CCN(C5COC5)CC4)cc31)NC(=O)c1cc-2c(=O)n(C)c1 (single isomer, unassigned) [Example A71B]	20	2.5	2.8	–	14	319	2.4	2.9	–	1.3	1.8	6.6	0.66	2	2.9	4.2	2.2	8	1.9	830	–
CN1CCC2(CCN(c3ccc4nc5n(c4c3)C34CCC(CN(CCOc6c(cnn6C)-c6cc(cn(C)c6=O)C(=O)N5)C3)C4)C2)C1 (single isomer, unassigned) [Example A81A]	> 5000	> 5000	> 5000	–	1530	> 5000	> 5000	> 5000	1320	389	404	247	107	258	319	170	381	350	178	–	–
Cn1ncc2c1OCCN(C1COC1)CCn1c(nc3ccccc31)NC(=O)c1cc-2c(=O)n(C)c1 [Example A5, 5,26-Dimethyl-10-(oxetan-3-yl)-7-oxa-4,5,10,13,20,22,26-heptaazapentacyclo[22.3.1.0^{2,6}.0^{13,21}.0^{14,19}]octacosa-1(28),2(6),3,14,16,18,20,24-octaene-23,27-dione]	> 5000	704	> 5000	482	> 5000	> 5000	560	> 5000	2870	628	849	–	–	–	–	–	–	–	–	–	GI50 [1, 3]: 392 nM; GI50 [1, 4]: 1160 nM; GI50 [1, 5]: 454 nM; GI50 [1, 6]: 764 nM; GI50 [1, 7]: 859 nM; GI50 [1, 8]: 961 nM; GI50 [1, 9]: 747 nM
CN(C)C1CN(c2ccc3nc4n(c3c2)C23CCC(CN(CCOc5c(cnn5C)-c5cc(cn(C)c5=O)C(=O)N4)C2)C3)CC1F (single isomer, unassigned) [Example A84C, 15,21-Dimethyl-5-[4-fluoro-3-(N,N-dimethylamino)pyrrolidinyl]-23-oxa-2,9,11,15,20,21,26-heptaazaheptacyclo[24.4.1.1^{1,28}.1^{13,17}.0^{2,10}.0^{3,8}.0^{18,22}]tritriaconta-3,5,7,9,13,17(33),18(22),19-octaene-12,16-dione]	4.8	3.4	5	–	6.7	57	2.5	3.5	–	1.4	2.6	6.6	0.72	2.1	2.1	3.9	6	12	2.7	727	–
Cn1ncc2c1OCCN1CC3CCC(C3)(C1)n1c(nc3ccc(N4CC(N5CCOCC5)C4)cc31)NC(=O)c1cc-2c(=O)n(C)c1 (single isomer, unassigned) [Example A69B]	14	2	2.8	–	22	291	2.2	3	–	1.2	2.9	4.9	0.62	1.3	2.9	3.6	2	10	2	776	–

From patent publication US20260365670A1, “EGFR INHIBITORS AND USES THEREOF” (DIZAL (JIANGSU) PHARMACEUTICAL CO., LTD., priority 2022, published 2026)
